Values quoted from earlier work, collected in patent publication US11752185B2, “Powderized cannabis oil” (Hemp Synergistics, priority 2020, dated 2023).

Conditions: clinical studies; EPIDIOLEX context: seizures associated with Lennox-Gastaut syndrome or Dravet syndrome

**Q.** For `C=C(C)[C@@H]1CCC(C)=C[C@H]1c1c(O)cc(CCCCC)cc1O` [CBD, cannabidiol], which therapeutic dose is on record?
**A.** 10 mg/kg/day
